The values that follow come from patent publication US7507860B2 (Pfizer Inc., priority 2004, dated 2009).

In the assay the test system is male Syrian hamsters, ear sebaceous glands. As to the kind of experiment: Animal model for inhibition of sebum production (hamster ear, HPLC of sebum lipids). In kind it is in vivo, Syrian hamster. Conditions: 4 weeks; for % Reduction in CE (cholesterol ester) / % Reduction in WE (wax ester): 3-w/v % topical to ears twice daily, five days a week, difference from vehicle control; for Sum CE + WE: summation of % reduction in CE and WE, 3-w/v % topical. As for the experimental part:
Luderschmidt et al describes an animal model for testing whether compounds are capable of modulating sebum secretion. Arch. Derm. Res. 258, 185-191 (1977). This model uses male Syrian hamsters, whose ears contain sebaceous glands. The products of Example 1 and 4 were screened in this model.
Testing for sebum inhibition was carried out in the following manner. Male Syrian hamsters aged 9 to 10 weeks were introduced into the laboratory environment and acclimated for 2 weeks prior to use in the study. Each group consisted of 5 animals and run in parallel with vehicle and positive controls. Prior to administration, 30 mg of each compound was dissolved in 1 mL of a solvent consisting of transcutanol, ethanol, and propylene glycol (20/60/20% v/v) to achieve a final concentration of 3-w/v %.
Animals were dosed topically twice daily, five days a week, for 4 weeks. Each dose consisted of 25 micro liters of vehicle control or drug. The dose was applied to the ventral surfaces of both the right and left ears. All animals were sacrificed approximately 18-24 hours after the final dose. The right ears were collected from each animal and used for sebum analysis.
The ears were prepped for HPLC analysis in the following manner. One 8 mm distal biopsy punch was taken, just above the anatomical “V” mark in the ear to normalize the sample area. The punch was pulled apart. The ventral biopsy surface (the area where the topical dose was directly applied to the sebaceous glands) was retained for testing and the dorsal surface of the biopsy punch was discarded.
Tissue samples were blown with N2 gas and stored at −80° C. under nitrogen until HPLC analysis. In addition to ear samples, an aliquot of each drug and vehicle (at least 250 ul) was also stored at −80° C. for inclusion in the HPLC analysis.
HPLC analysis was carried out on an extract of the tissue sample. Tissue samples were contacted with 3 ml of solvent (a 4:1 admixture of 2,2,4-trimethylpentane and isopropyl alcohol). The mixture was shaken for 15 minutes and stored overnight at room temperature, protected from light. The next morning 1 milliliter of water was added to the sample and shaken for 15 minutes. The sample was then centrifuged at approximately 1500 rpm for 15 minutes. Two ml of the organic phase (top layer) was transferred to a glass vial, dried at 37° C., under nitrogen, for approximately 1 hour, and then lyophilized for approximately 48 hours. The samples were then removed from the lyophilizer and each vial was reconstituted with 600 μl of solvent A (trimethylpentane/tetrahydrofuran (99:1). The samples were then recapped and vortexed for 5 minutes.
200 μl of each sample was then transferred to a pre-labeled 200 μl HPLC vial with 200 μL glass inserts. The HPLC vials were placed in the autosampler tray for the Agilent 1100 series HPLC unit. The Agilent 1100 HPLC system consisted of a thermostated autosampler, a quarternary pump, a column heater, and an A/D interface module. All components were controlled by Agilent ChemStation software. A Waters Spherisorb S3W 4.6×100 mm analytical column was maintained at 30° C. by the Agilent column heater unit. The HPLC autosampler was programmed to maintain the sample temperature at 20 C throughout the run.
10 uL of each sample was injected in triplicate into the column. Two solvents were used for the solvent gradient. Solvent A was an admixture of trimethylpentane and tetrahydrofuran (99:1). Solvent B was ethylacetate. The gradient utilized is described in the table below: […]
The Sedex 75 Evaporative Light Scattering Detector (ELSD) was operated at 45° C. with a gain of 5, and N2 pressure maintained at 3.1 bar. Analog signal obtained by the instrument was sent to the Agilent A/D interface module where it was converted to a digital output. The conversion was based on a 10000-mAU/volt set point and the data rate was set at 10 Hz (0.03 min). The resulting digital output was then feed into the Agilent ChemStation software for integration of the peak area. […]

Turning to `CC(C)CC(Oc1ccc(C#N)c(C(F)(F)F)c1)C(=O)NCc1ccccc1` (stereo not drawn) [Example 1, 2-(4-Cyano-3-trifluoromethyl-phenoxy)-4-methyl-pentanoic acid benzylamide], the “% Reduction in CE (cholesterol ester)” value stood at 32%, the “% Reduction in WE (wax ester)” value is recorded as 52% and the “Sum CE + WE” value stood at 84%.

Regarding `CCCC(Oc1ccc(C#N)c(C(F)(F)F)c1)C(=O)NCc1ccccc1` (stereo not drawn) [Example 4, 2-(4-Cyano-3-trifluoromethyl-phenoxy)-pentanoic acid benzylamide], the “% Reduction in CE (cholesterol ester)” value amounted to 15%, the “% Reduction in WE (wax ester)” value is reported as 31% and the “Sum CE + WE” value stood at 46%.
